Test results taken from patent US20100056983A1, “Treatment of cancer using photodynamic therapy” (Health Research, Inc., priority 2007, published 2010).
Marks after values point to notes of the source that are not given here.

What was measured:
[1] = test system: cancers that involve epithelial type tissue in the upper respiratory system; experiment: Effective photosensitizer dose for PDT of cancers in the upper respiratory system; assay type: in vivo, human
Protocol: HPPH is effective at doses of only 0.08 to 0.13 mg/kg of body weight (3.5 mg/m2 of body surface area) versus a minimum of 2 mg/kg of body weight for porfimer sodium.

[2] = Ratio of normal tissue levels of two photosensitizers in mice to tumor levels; assay type: in vivo; conditions: 24 h post injection
From the text: A table showing relative concentrations in normal tissue and cancer tissue for various tissue types is shown below. Ratios are shown in the form of concentration in normal tissue/concentration in tumor tissue. Lower numbers thus represent less PDT agent (HPPH or porfimer sodium) in normal tissue relative to concentration in tumor tissue. Lower concentrations in normal tissue would be expected to result in less tissue damage at tumor concentrations sufficient to destroy tumor tissue.
Ratios were obtained by dividing actual amounts of the photosensitizer in a given tissue by the amount in the tumor.
Data at 24 h post injection were used since this is the time the mice are treated by light, generally from a laser at non-thermal dose rates.

[3] = Duration of cutaneous photosensitivity after the photosensitizer; assay type: in vivo
From the text: Further, porfimer sodium is activated by light at 630 nm, which is suboptimal for tissue penetration. In addition, in tissues found in the upper respiratory system, side effects to normal tissue proximate to a tumor site has been greater than desirable, e.g. edema and normal tissue destruction, sometimes contributing to weeks for recovery and in some cases possibly causing permanent injury to normal proximate tissue. These drawbacks have led to a search for other photosensitizers without these limitations. This is especially important with respect to cancers that interfere with respiration, e.g. nose, mouth, pharynx, larynx and trachea. Temporary interference with digestive function can be tolerated since the body can cope without food input for a significant period of time and additionally, intravenous feeding can be readily done for temporary nutrition. The same case can of course not be made when respiration is involved since interference with respiration for even a short period is exceedingly distressful and in extreme cases can be fatal. In the case of cancers that involve the upper respiratory system it is therefore exceedingly important that damage to normal tissue be avoided. […]

[4] = test system: squamous cell carcinoma on their larynx; experiment: HPPH-PDT of a patient with squamous cell carcinoma on the larynx (Example 1); assay type: in vivo, human
Protocol: A person presented with a squamous cell carcinoma on their larynx. They refused surgery and radiation therapy and chose photodynamic therapy treatment using HPPH (2-[1-hexyloxyethyl]-2-devinyl pyropheophorbide a). They were infused over one hour with HPPH at 4 mg/m^2 (about 0.1 mg/kg). The following day they received non-thermal low power laser light treatment (150 mw/cm) at 665 nm in order to activate the photodynamic process. The light was delivered by a single quartz fiber treaded through a laryngoscope. They received 50 Joules/cm of the 665 nm light over 5.5 min.

[5] = test system: squamous cell carcinoma of the floor of the mouth; experiment: HPPH-PDT of a patient with squamous cell carcinoma of the floor of the mouth (Example 2); assay type: in vivo, human
Protocol: A person presented with a squamous cell carcinoma of the floor of the mouth. They chose to have photodynamic therapy with HPPH (2-[1-hexyloxyethyl]-2-devinyl propheophorbide—a) rather than surgery or radiation therapy. They were infused with 4 mg/m^2 HPPH. The following day they received non-thermal low power laser light (150 mw/cm) at 665 nm in order to activate photodynamic process. The light was delivered by a single quartz fiber threaded through a laryngoscope. They received 50 Joules/cm of the 665 nm light over 5.5 min. […] This was resolved when examined 30 days after treatment.

[6] = test system: high grade dysplasia / Barrett's mucosa; conditions: 2 mg/kg, 630±5 nm, 100 to 250 joules/cm, cited from earlier work
[7] = patients after PDT; cited from earlier work
T1 recurrent lesions = conditions: 26 patients, follow up of 6 to 51 months; cited from earlier work
[8] = test system: squamous cell carcinoma of the larynx; conditions: cited from earlier work
[9] = 4 mg/m^2 HPPH, 50 Joules/cm at 665 nm
[10] = normalized to 5 mg/kg from data obtained at 27 mg/kg

Molecule: CCCCCCOC(C)c1c(C)c2cc3nc(c4c5[nH]c(cc6nc(cc1[nH]2)C(C)=C6CC)c(C)c5C(=O)C4)[C@@H](CCC(=O)O)[C@@H]3C (stereo partly shown) [HPPH, 2-(1-hexyloxyethyl)-2-devinyl pyropheophorbide-a]
- Effective dose per body surface area ([1]; with light exposure at 665±5 nm): 3.5 mg/m2 of body surface area
- Ratio concentration in normal tissue/concentration in tumor tissue: Adrenals [2]: 0.95
- Ratio concentration in normal tissue/concentration in tumor tissue: Brain [2]: 0.01
- Ratio concentration in normal tissue/concentration in tumor tissue: Kidney [2]: 0.12
- Ratio concentration in normal tissue/concentration in tumor tissue: Liver [2]: 1.9
- Ratio concentration in normal tissue/concentration in tumor tissue: Lung [2]: 2.7
- Ratio concentration in normal tissue/concentration in tumor tissue: Muscle [2]: 0.095
- Ratio concentration in normal tissue/concentration in tumor tissue: Pancreas [2]: 0.11
- Ratio concentration in normal tissue/concentration in tumor tissue: Spleen [2]: 0.14
- Ratio concentration in normal tissue/concentration in tumor tissue: Urinary Bladder [2]: 0.11
- Absolute Tumor Levels [2]: 3 µg/g
- Duration of prolonged cutaneous photosensitivity ([3]; in vivo): 1-2 weeks
- Effect upon normal tissue [4, 9]: No affect upon normal tissue
- Skin photosensitivity [4, 9]: no skin photosensitivity
- Response to treatment ([4]; 4 mg/m^2 HPPH, 50 Joules/cm at 665 nm next day, second follow up at 3 months): complete response
- Adverse effects after treatment ([4]; completely resolved at first follow up 30 days after treatment): transient edema and hoarseness of voice
- Effect upon normal tissue [5, 9]: No effect upon normal tissue
- Skin photosensitivity [5, 9]: no skin photosensitivity
- Response to treatment ([5]; 4 mg/m^2 HPPH, 50 Joules/cm at 665 nm next day, follow up at 6 months, confirmed by biopsy): complete response
- Adverse effects after treatment ([5]; controlled with analgesics, resolved when examined 30 days after treatment): transient moderate pain at the treatment site

Molecule: porfimer sodium
- Effective dose ([1]; with light exposure (HPPH 665±5 nm)): ≥ 2 mg/kg of body weight
- Destruction of high grade dysplasia ([6]; 100 patients): all patients treated
- Patients with complete ablation of Barrett's mucosa ([6]; 100 patients): 43%
- Patients with esophageal strictures ([6]; all patients treated): 34%
- Patients with complete ablation of Barrett's mucosa with PDT treatment only [6]: 8%
- Patients with complete ablation who required thermal ablation of small residual islands [6]: 35%
- Ratio concentration in normal tissue/concentration in tumor tissue: Adrenals [2, 10]: 6.5^###
- Ratio concentration in normal tissue/concentration in tumor tissue: Brain [2, 10]: 0.05^###
- Ratio concentration in normal tissue/concentration in tumor tissue: Kidney [2]: 4
- Ratio concentration in normal tissue/concentration in tumor tissue: Liver [2]: 7
- Ratio concentration in normal tissue/concentration in tumor tissue: Lung [2]: 1.7
- Ratio concentration in normal tissue/concentration in tumor tissue: Muscle [2]: 0.33
- Ratio concentration in normal tissue/concentration in tumor tissue: Pancreas [2, 10]: 4.3^###
- Ratio concentration in normal tissue/concentration in tumor tissue: Skin [2]: about 0.93
- Ratio concentration in normal tissue/concentration in tumor tissue: Skin ([2]; listed as PHOTOFRIN): 0.93
- Ratio concentration in normal tissue/concentration in tumor tissue: Spleen [2, 10]: 3.1^###
- Ratio concentration in normal tissue/concentration in tumor tissue: Urinary Bladder [2, 10]: 5.9^###
- Absolute Tumor Levels [2]: 1.05 µg/g
- Period of complete protection from sunlight and bright light because of skin photosensitization [7]: up to 90 days
- Duration of prolonged cutaneous photosensitivity ([3]; patients after PDT): 4-6 weeks
- Complete response (T1 recurrent lesions): 77%
- Recurrences ([8]; 117 patients treated for cure, follow-up to 189 months (mean 84 months)): 10
- Adverse reactions ([8]; 117 patients with squamous cell carcinoma of the larynx): edema and erythema
